From US20240090506A1, “SURFACE MODIFICATION TO REGULATE PLANT GROWTH” (BIND-X GMBH, priority 2020, published 2024) come the findings set out here.

The subject of this assay is Plantago lanceolate (ribwort plantain) and Poa annua (annual meadow grass). Nature of the assay: Pot test with solid (powdered) alkali silicates or mixtures: weed coverage rate, degree of efficiency = weed penetration resistance (Example 2). It counts as in vivo. To be noted: in the dosage used in the mixtures. As to the method:
The experiment was carried out in the laboratory in plant pots with a volume of 450 cm^3. The application area was 78.5 cm^2. The soil substrate was a sifted land soil. Humus (humic soil) was used as a nutrient source for the desired plant. […] On top of the humic soil, 250 g of sifted land soil was placed. Both soil substrates were free of weed growth prior to treatment. Both soils contained minimal residues of endemic weed seeds or inflowing seeds. These present seeds were not sufficient for efficient weed growth. […] For this purpose, the weeds were worked into the top soil layer in a depth of 2-4 mm. Different alkali silicate powders were used in this experiment, which are specified in detail below. Hardeners and/or performance modifiers were added, if applicable. The solid formulations were mixed and then applied homogeneously to the soil surface. […] The coverage rate was determined by manual visual assessment of the plant pots at the specified times, as described in example 1. […] From this in turn the degree of efficiency according to Abbott was calculated as follows: Degree of efficiency=[coverage rate control(day x)−coverage rate product(day x)]/coverage rate control(day x)*100 Furthermore, the quality of the formed layer was observed regularly with respect to crack formation. […]

As to `CC(=O)[O-].CC(=O)[O-].[Ca+2]` [calcium acetate], the “weed penetration resistance of the performance modifier alone” value is on record as “An effect is observed only at the beginning of the experiment”.
